Laboratory results published in article PMC5556071, “ATR inhibition facilitates targeting of leukemia dependence on convergent nucleotide biosynthetic pathways” (Nature Communications, 2017).
“And” between values parts separate entries of the source, which are not always exact repeats. Equal values may be shown once.

Test system: CEM cells
Test: Non-targeted LC-MS metabolite profiling: percent [13C6]glucose labeling and relative metabolite levels
Format: cell-based, human
Conditions: CEM cells, 12 h following release from G1 arrest, replicates #1-#6
From the text: To further investigate the functions of dCK and ATR at the G1/S transition in CEM cells, a non-targeted liquid chromatography mass spectrometry (LC-MS) assay was used to determine the utilization of labeled [^13C6]glucose and [^13C9,^15N3]deoxycytidine, the main substrates for de novo and salvage nucleotide biosynthesis, respectively. Of the 166 metabolites identified in CEM cells treated with VE-822 and/or dCKi, 105 metabolites found in all four treatment groups contained glucose-derived ^13C atoms. […] These metabolites included intermediates such as rUTP, rCTP and rCDP in the de novo dCTP biosynthesis (Fig. 1d). […] However, several deoxyribonucleotides, including dCTP, were below the limit of detection of the non-targeted LC-MS approach, raising the concern that the sensitivity of this assay is not sufficient to measure the contribution of the salvage pathway or the ratio of de novo and salvage biosynthesis to these pools. To address this problem, a newly developed targeted MS assay was developed (Fig. 1e and Supplementary Fig. 3). In this assay, samples containing either extracted dNTPs or hydrolyzed DNA from labeled cells are separated by LC for detection by a triple quadrupole mass spectrometer using multiple reaction monitoring (LC-MS/MS-MRM). The first (Q1) and third (Q3) quadrupoles function as mass filters, while the second (Q2) quadrupole serves as a collision chamber (Fig. 1e). For instance, to profile the biosynthetic composition of deoxycytidine (dC) derived from hydrolyzed DNA or dCTP, an intact, protonated dC ion is selected in Q1, followed by fragmentation of the glycosidic bond, which releases protonated cytosine in Q2, that is filtered in Q3 and detected to generate an ion chromatogram. The peak areas for the ion chromatograms of salvage [^13C9,^15N3]dC (red trace), de novo [^13C5]dC (black trace, from [^13C6]glucose) and unlabeled dC (gray trace) (Fig. 1e) are used to determine the relative contributions of the de novo and salvage routes both to dCTP pools and to DNA-incorporated dCTP.
Cells were transferred into RPMI-1640 without glucose and supplemented with 10% dialyzed FBS (Gibco) containing the following labeled substrates: precursors for de novo [U-^13C6]glucose (Sigma-Aldrich, 389374) at 11 mM; precursors for purine salvage [U-^13C10,^15N5]dA (Cambridge Isotopes, CIL 3896), [^15N5]dA (Cambridge Isotopes, NLM-3895) and [^15N5]dG (Cambridge Isotopes, NLM-3899) at 5 µM or as indicated; and precursors for pyrimidine salvage: [U-^13C9,^15N3]dC (Silantes, 124603602) and [U-^13C10,^15N2]dT (Cambridge Isotopes, CNLM-3902) at 5 µM and [^15N2]orotate (Cambridge Isotopes, NLM-1048) at indicated concentrations. The cells were incubated for 12 h or as indicated before sample collection and processing. […]
Non-targeted LC-MS metabolic assays. 1 x 10^6 cells were washed with ice-cold 150 mM ammonium acetate twice before adding 1 mL of ice-cold 80% methanol with 10 nM norvaline as an internal standard. After vigorous vortexing, samples were centrifuged at maximum speed, the aqueous layer was transferred to a glass vial and the metabolites were dried under vacuum. Metabolites were resuspended in 50 μL 70% acetonitrile (ACN) and 5 μL of this solution used for the mass spectrometer-based analysis. The analysis was performed on a Q Exactive (Thermo Scientific) in polarity-switching mode with positive voltage 4.0 kV and negative voltage 4.0 kV. The mass spectrometer was coupled to an UltiMate 3000RSLC (Thermo Scientific) UHPLC system. Mobile phase A was 5 mM ammonium acetate (NH4AcO), pH 9.9, B was acetonitrile and the separation achieved on a Luna […] NH2 100 A column (150 × 2.0 mm, Phenomenex). The flow was 200 μL/min, and the gradient ran from 15% A to 95% A in 18 min, followed by an isocratic step for 9 min and re-equilibration for 7 min. Metabolites were detected and quantified as area under the curve based on retention time and accurate mass (≤ 3 p.p.m.) using the TraceFinder 3.1 (Thermo Scientific). Relative amounts of […]

[1] = metabolite CDP (KEGG C00112), listed as V
[2] = metabolite CDP-EtA (KEGG C00570), listed as V
[3] = metabolite CMP (KEGG C00055), listed as V
[4] = metabolite CTP (KEGG C00063), listed as V
[5] = metabolite Choline (KEGG C00114), listed as V
[6] = metabolite Cinnamic acid (KEGG C00423), listed as V
[7] = metabolite Cit (KEGG C00158), listed as V
[8] = metabolite Citraconic acid (KEGG C02226), listed as V
[9] = metabolite Creatine (KEGG C00300), listed as V
[10] = metabolite Creatinine (KEGG C00791), listed as V
[11] = metabolite Cytosine (KEGG C00380), listed as V
[12] = metabolite DMG (KEGG C01026), listed as V
[13] = metabolite Dihydroorotate (KEGG C00337), listed as V
[14] = metabolite F16BP (KEGG C00354), listed as V
[15] = metabolite Folate (KEGG C00504), listed as V
[16] = metabolite Fru (KEGG C00095), listed as V
[17] = metabolite Fum (KEGG C00122), listed as V
[18] = metabolite G (KEGG C00387), listed as V
[19] = metabolite dG (KEGG C00330), listed as V
[20] = metabolite dTMP (KEGG C00364), listed as V

For CNCc1ccc(-c2cc(-c3nc(-c4ccc(S(=O)(=O)C(C)C)cc4)cnc3N)on2)cc1 [VE-822], the “Glucose labeling of CDP” value [1] was 46.58% and 27.42% and 42.30% and 38.55% and 26.25% and 39.84%, the “Relative level of CDP” value [1] was 3.4 and 1.2 and 1.9 and 1.6 and 0.8 and 0.754 and the “Glucose labeling of CDP-EtA” value [2] was 25.10% and 38.04% and 37.00% and 40.76% and 32.59% and 33.65%. The “Relative level of CDP-EtA” value [2] was 0.7 (3×) and 0.9 and 0.744 and 0.633, the “Glucose labeling of CMP” value [3] was 38.36% and 31.49% and 41.31% and 20.57% and 40.83% and 49.90% and the “Relative level of CMP” value [3] was 3.0 and 2.7 and 2.4 and 1.7 and 0.9 and 0.7. For the same compound, the “Glucose labeling of CTP” value [4] was 40.85% and 37.06% and 39.44% and 47.60% and 38.66% and 34.33%, the “Relative level of CTP” value [4] was 1.6 and 0.5 and 0.8 and 0.848 and 0.468 and 0.448 and the “Glucose labeling of Choline” value [5] was 0.00248% (3×) and 0.00264% and 0.0024% and 0.00242%. The “Relative level of Choline” value [5] was 1.2 and 1.3 and 1.4 and 0.849 and 0.8 (2×), the “Glucose labeling of Cinnamic acid” value [6] was 0.00% (5×) and 1.11e-14% and the “Relative level of Cinnamic acid” value [6] was 1.7 and 1.5 and 1.6 and 1.0 (2×) and 0.9. For the same compound, the “Glucose labeling of Cit” value [7] was 50.64% and 47.53% and 49.55% and 44.89% and 45.53% and 45.28%, the “Relative level of Cit” value [7] was 0.9 and 0.6 and 0.7 and 0.47 and 0.449 and 0.454 and the “Glucose labeling of Citraconic acid” value [8] was 0.00% (5×) and -2.22e-14%. For the same compound, the “Relative level of Citraconic acid” value [8] was 1.1 (3×) and 1.6 and 0.8 and 1.0, the “Glucose labeling of Citrulline” value (metabolite Citrulline (KEGG C00327)) was 0.18% and the “Relative level of Citrulline” value (metabolite Citrulline (KEGG C00327), listed as V) was 0.5 and 1.2 (2×) and 2.5 and 0.3 and 0.335. For the same compound, the “Glucose labeling of Creatine” value [9] was 0.000881% and 0.000842% and 0.000971% and 0.000748% and 0.000833% and 0.000956%, the “Relative level of Creatine” value [9] was 1.0 and 1.1 (2×) and 0.8 and 0.9 and 0.852 and the “Glucose labeling of Creatinine” value [10] was 0.000588% and 0.000811% and 0.000818% and 0.000809% and 0.000725% and 0.000748%. For the same compound, the “Relative level of Creatinine” value [10] was 1.0 (3×) and 1.1 and 1.2 and 0.848, the “Glucose labeling of Cystathionine” value (metabolite Cystathionine (KEGG C02291)) was 0.26% and the “Relative level of Cystathionine” value (metabolite Cystathionine (KEGG C02291), listed as V) was 1.0 and 0.182 and 1.1 and 0.2 and 0.4 and 0.251. The “Glucose labeling of Cytosine” value [11] was 0.00381% and 0.000394% and 0.000743% and 0.000956% and 0.000512% and 0.0321%, the “Relative level of Cytosine” value [11] was 1.4 and 1.7 and 3.0 and 5.5 and 1.6 and 0.9 and the “Glucose labeling of DHAP” value (metabolite DHAP (KEGG C00111)) was 100.00%. The “Relative level of DHAP” value (metabolite DHAP (KEGG C00111), listed as V) was 5.8 and 0.3 and 1.3 and 1.2 and 0.2, the “Glucose labeling of DMG” value [12] was 0.0737% and 0.02% and 0.04% and 0.06% and 0.0145% and 0.05% and the “Relative level of DMG” value [12] was 0.7 and 1.3 and 1.0 (2×) and 0.527 and 0.9. For the same compound, the “Glucose labeling of Dihydroorotate” value [13] was 0.55% and 0.92% and 0.10% and 0.96% and 0.80% and 0.09%, the “Relative level of Dihydroorotate” value [13] was 0.9 and 0.7 and 0.8 and 0.754 and 0.5 and 0.468 and the “Glucose labeling of F16BP” value [14] was 97.93% and 88.56% and 94.79% and 95.15% and 79.77% and 75.67%. For the same compound, the “Relative level of F16BP” value [14] was 9.1 and 1.1 and 2.4 and 2.6 and 0.552 and 0.456, the “Glucose labeling of Folate” value [15] was 0.00% (5×) and 100.00% and the “Relative level of Folate” value [15] was 0.546 and 1.0 and 0.5 and 0.4 and 0.9. The “Glucose labeling of Fru” value [16] was 58.79% and 68.43% and 78.80% and 67.26% and 65.64% and 42.97%, the “Relative level of Fru” value [16] was 3.7 and 3.5 and 2.9 and 1.6 and 1.8 and 2.4 and the “Glucose labeling of Fum” value [17] was 15.89% and 14.12% and 10.85% and 10.48% and 12.71% and 7.86%. The “Relative level of Fum” value [17] was 1.3 and 0.8 (2×) and 1.1 and 0.565 and 0.5, the “Glucose labeling of G” value [18] was 0.55% (4×) and 100.00% (2×) and the “Relative level of G” value [18] was 1.1 and 0.852 and 0.9 and 1.6. For the same compound, the “Glucose labeling of dATP” value (metabolite dATP (KEGG C00131)) was 100.00%, the “Relative level of dATP” value (metabolite dATP (KEGG C00131)) was 0.6 and the “Glucose labeling of dCTP” value (metabolite dCTP (KEGG C00458)) was 100.00%. The “Relative level of dCTP” value (metabolite dCTP (KEGG C00458)) was 0.0, the “Glucose labeling of dG” value [19] was 0.38% and 0.48% and 0.49% and 0.0145% and 0.37% and 0.09% and the “Relative level of dG” value [19] was 1.7 (2×) and 1.1 (2×) and 6.1 and 1.0. The “Relative level of dGDP” value (metabolite dGDP (KEGG C00361)) was 61.2, the “Glucose labeling of dGDP” value (metabolite dGDP (KEGG C00361), listed as V) was 100.00% (5×) and 0.38% and the “Glucose labeling of dTMP” value [20] was 0.55% and 100.00% (4×) and 82.28%. The “Relative level of dTMP” value [20] was 0.7 and 6.1 and 3.9 and 1.9 and 0.6 and 0.453, the “Glucose labeling of dTTP” value (metabolite dTTP (KEGG C00459)) was 100.00% and the “Relative level of dTTP” value (metabolite dTTP (KEGG C00459), listed as V) was 0.47 and 0.4. For the same compound, the “Glucose labeling, Leu/Ile” value was 0.00%, the “Glucose labeling, NAD+” value was 0.00% and the “Glucose labeling, P-Creatine” value was 0.0737%. The “Glucose labeling, P-EtA” value was 0.0123%, the “Glucose labeling, PEP” value was 100.00% and the “Glucose labeling, Phe” value was 0.00%. The “Glucose labeling, Pipecolate” value was 0.00%, the “Glucose labeling, Pyr” value was 100.00% and the “Glucose labeling, Sarc (C00213)” value was 0.0369%. The “Glucose labeling, Thr (C00188)” value was 0.00% and the “Glucose labeling, Trigonelline (C01004)” value was 0.00%.
